Tests used:
HT1080 tumors = assay: Human fibrosarcoma xenograft, total diameter (tumor + leg)
[1] = MTMD (Maximum Tolerated Multiple Dose) determination, iv weekly x 3; format: in vivo; conditions: mice; iv/Q7d × 3
Source text: Female CD-1 or Athymic Nude-Fox1 nu/nu mice (Envigo) were utilized for all experiments. […] Animals were acclimated for five days prior to being individually tattoo-identified. Animal protocols were reviewed and approved according to the regional Institutional Animal Care and Use Committees.
Mice were randomly allocated into experimental groups and intravenously administered, once for the MTD (Maximum Tolerated Dose) determination or one administration a week during three consecutive weeks, for the MTMD (Maximum Tolerated Multiple Dose) determination study. The animals were administered with white formulation or with compound dissolved in the experimental formulation at different concentrations. The volume administered was always […]. Once administered, animals were monitored for clinical signs of systemic toxicity, changes in body weight and mortality up to 14 days after the administration.

[2] = test system: HT29 cells (colorectal adenocarcinoma); assay: cells; conditions: HT29, SRB
Source text: (§1) The aim of this assay is to evaluate the in vitro cytostatic (ability to delay or arrest tumor cell growth) or cytotoxic (ability to kill tumor cells) activity of the samples being tested.
(§2) A colorimetric assay, using sulforhodamine B (SRB) reaction has been adapted to provide a quantitative measurement of cell growth and viability (following the technique described by Skehan et al. J. Natl. Cancer Inst. 1990, 82, 1107-1112). Another colorimetric assay based on 3-(4,5-Dimethylthiazol-2-yl)-2,5-diphenyltetrazolium bromide (MTT) reduction to a purple formazan has been also used to assess the antiproliferative activity (following the technique described by Mosmann et al. J. Immunol. Meth. 1983, 65, 55-63).
(§3) These forms of assays employ 96-well cell culture microplates following the standards of the American National Standards Institute and the Society for Laboratory Automation and Screening (ANSI SLAS 1-2004 (R2012) Oct. 12, 2011. All the cell lines used in this study were obtained from the American Type Culture Collection (ATCC) and derive from different types of human cancer.
(§4) A549, HT29, MDA-MB-231 and PSN1 cells were maintained in Dulbecco's Modified Eagle Medium (DMEM) while PC-3 and 22Rv1 cells were maintained in Roswell Park Memorial Institute Medium (RPMI). All cell lines were supplemented with 10% Fetal Bovine Serum (FBS), 2 mM L-glutamine, 100 U/mL penicillin, and 100 […] at 37° C., 5% CO2 and 98% humidity. For the experiments, cells were harvested from subconfluent cultures using trypsinization and resuspended in fresh medium before counting and plating.
(§5) A549, HT29, MDA-MB-231 and PSN1 cells were seeded in 96 well microtiter plates, at 5000 cells per well in aliquots of 150 μL, and allowed to attach to the plate surface for 18 hours (overnight) in drug free medium. After that, one control (untreated) plate of each cell line was fixed (as described below) and used for time zero reference value. Culture plates were then treated with test compounds (50 μL aliquots of 4× stock solutions in complete culture medium plus 4% DMSO) using ten ⅖ serial dilutions (concentrations ranging from 10 to 0.003 μg/mL) and triplicate cultures (1% final concentration in DMSO). After 72 hours treatment, the antitumor effect was measured by using the SRB methodology: Briefly, cells were washed twice with PBS, fixed for 15 min in 1% glutaraldehyde solution at room temperature, rinsed twice in PBS, and stained in 0.4% SRB solution for 30 min at room temperature. Cells were then rinsed several times with 1% acetic acid solution and air-dried at room temperature.
(§6) Effects on cell growth and survival were estimated by applying the NCI algorithm (Boyd M R and Paull K D. Drug Dev. Res. 1995, 34, 91-104). The values obtained in triplicate cultures were fitted by nonlinear regression to a four-parameters logistic curve by nonlinear regression analysis.

[3] = test system: A549 cells (lung carcinoma, NSCLC); assay: cells; conditions: A549, SRB
Source text: as §1, §2, §3, §4, §5, §6

[4] = test system: PSN1 cells (pancreas adenocarcinoma); assay: cells; conditions: PSN1, SRB
Source text: as §1, §2, §3, §4, §5, §6

[5] = test system: MDA-MB-231 cells (breast adenocarcinoma); assay: cells; conditions: MDA-MB-231, SRB
Source text: as §1, §2, §3, §4, §5, §6

[6] = total cell growth inhibition, 72 hours
[7] = read-out: LC50, 50% net cell killing, 72 hours

COc1c(C)cc2c(c1O)[C@@H]1[C@@H]3[C@@H]4SC[C@]5(N[C@H](C)Cc6c5[nH]c5ccccc65)C(=O)OC[C@@H](c5c6c(c(C)c(OC(C)=O)c54)OCO6)N3[C@@H](O)[C@H](C2)N1C [Compound C]
Total diameter (tumor + leg) (HT1080 tumors; Day 0): 7.5 mm
Total diameter (tumor + leg) (HT1080 tumors; Day 0.0, iv Days 0, 7 and 14, compound C 3.0 mg/kg, 4-S […], 12-S […]): 7.5 mm
Total diameter (tumor + leg) (HT1080 tumors; Day 2): 8.8 mm
Total diameter (tumor + leg) (HT1080 tumors; Day 2.0, iv Days 0, 7 and 14, compound C 3.0 mg/kg, 4-S […], 12-S […]): 8.8 mm
Total diameter (tumor + leg) (HT1080 tumors; Day 5): 9.0 mm
Total diameter (tumor + leg) (HT1080 tumors; Day 5.0, iv Days 0, 7 and 14, compound C 3.0 mg/kg, 4-S […], 12-S […]): 9.0 mm
Total diameter (tumor + leg) (HT1080 tumors; Day 7): 9.6 mm
Total diameter (tumor + leg) (HT1080 tumors; Day 7.0, iv Days 0, 7 and 14, compound C 3.0 mg/kg, 4-S […], 12-S […]): 9.6 mm
Total diameter (tumor + leg) (HT1080 tumors; Day 9): 10.2 mm
Total diameter (tumor + leg) (HT1080 tumors; Day 9.0, iv Days 0, 7 and 14, compound C 3.0 mg/kg, 4-S […], 12-S […]): 10.2 mm
Total diameter (tumor + leg) (HT1080 tumors; Day 12): 10.2 mm
Total diameter (tumor + leg) (HT1080 tumors; Day 12.0, iv Days 0, 7 and 14, compound C 3.0 mg/kg, 4-S […], 12-S […]): 10.2 mm
Total diameter (tumor + leg) (HT1080 tumors; Day 14): 11.2 mm
Total diameter (tumor + leg) (HT1080 tumors; Day 14.0, iv Days 0, 7 and 14, compound C 3.0 mg/kg, 4-S […], 12-S […]): 11.2 mm
Total diameter (tumor + leg) (HT1080 tumors; Day 16): 12.4 mm
Total diameter (tumor + leg) (HT1080 tumors; Day 16.0, iv Days 0, 7 and 14, compound C 3.0 mg/kg, 4-S […], 12-S […]): 12.4 mm
Total diameter (tumor + leg) (HT1080 tumors; Day 19): 13.3 mm
Total diameter (tumor + leg) (HT1080 tumors; Day 19.0, iv Days 0, 7 and 14, compound C 3.0 mg/kg, 4-S […], 12-S […]): 13.3 mm
Total diameter (tumor + leg) (HT1080 tumors; Day 21): 15.2 mm
Total diameter (tumor + leg) (HT1080 tumors; Day 21.0, iv Days 0, 7 and 14, compound C 3.0 mg/kg, 4-S […], 12-S […]): 15.2 mm
Total diameter (tumor + leg) (HT1080 tumors; Day 23): 18.0 mm
Total diameter (tumor + leg) (HT1080 tumors; Day 23.0, iv Days 0, 7 and 14, compound C 3.0 mg/kg, 4-S […], 12-S […]): 18.0 mm
MTMD [1]: 3.0 mg/kg
GI50 ([2]; 72 hours treatment): 20.8 nM
TGI [2, 6]: 2.34E−08 Molar
CC50 [2, 7]: > 130 nM
GI50 ([3]; 72 hours treatment): 27.3 nM
TGI [3, 6]: 6.63E−08 Molar
CC50 [3, 7]: > 130 nM
GI50 ([4]; 72 hours treatment): 36.4 nM
TGI [4, 6]: 4.42E−08 Molar
CC50 [4, 7]: 65 nM
GI50 ([5]; 72 hours treatment): 26 nM
TGI [5, 6]: 5.46E−08 Molar
CC50 [5, 7]: > 130 nM
